In PMC9501525, “Conjugation of a Cationic Cell-Penetrating Peptide with a Novel Kunitzin-like Trypsin Inhibitor: New Insights for Enhancement of Peptide Bioactivities” (Pharmaceutics, 2022):
Peptide text beside a SMILES is read from it.

Experiments:
MRSA (NCTC 12493) = type: cell-based, methicillin-resistant Staphylococcus aureus; conditions: for MIC: MHB, 5 × 10^5 CFU/mL, overnight; for MBC: clear wells spotted onto MHA
Method: (§1) The antimicrobial efficacy screening of the purified peptides was performed by MIC/MBC experiments on the following six different bacteria and an opportunistic pathogenic yeast: E. coli (ATCC 8739), Klebsiella pneumoniae (K. pneumoniae) (ATCC 43816), Pseudomonas aeruginosa (P. aeruginosa) (ATCC 9027), Staphylococcus aureus (S. aureus) (ATCC 6538), methicillin-resistant Staphylococcus aureus (MRSA) (NCTC 12493), Enterococcus faecium (E. faecium) (NCTC 12697), and Candida albicans (C. albicans) (ATCC 10231). First, frozen beads of respective cultures were inoculated into Mueller Hinton broth (MHB) medium and incubated overnight at 37 °C. Next, 500 µL of respective suspensions were added to the fresh MHB medium for incubation, and then sub-cultured until reaching the log growth phase, which was determined by measuring the absorbance of cultures at a wavelength of 550 nm. Then, the subcultures were diluted to 5 × 10^5 CFU/mL and 99 µL of suspension was removed and mixed with 1 µL of peptide solution at different concentrations (double-dilution of 12,800 to 100 µM) in a 96-well plate. The blank control, vehicle control, growth control, and the positive control groups were prepared according to the conditions mentioned previously. The peptide solutions were added to the plate and mixed with the diluted microbial suspensions. After overnight incubation, the absorbance at 550 nm of each well was measured with a Synergy HT plate reader (Biotech, Minneapolis, MN, USA). Subsequently, the samples in each clear well were spotted onto Mueller Hinton agar (MHA) plates for the MBC assays of the tested peptides.

chymotrypsin = chymotrypsin (Bos taurus, UniProt P00766); assay: Chymotrypsin inhibition determination (fluorogenic substrate, Morrison Ki); type: biochemical; conditions: Morrison equation; substrate succinyl-Ala-Ala-Pro-Phe-AMC in PBS; Km = 17.15 μM, [S] = 42.86 μM, Et = 0.0020 μM; peptide 0.1–100 µM; nine replications in three experiments; N.I. = no inhibitory effect
Method: Phe-Pro-Arg-AMC (Bachem, Merseyside, UK) and succinyl-Ala-Ala-Pro-Phe-AMC (Bachem, Merseyside, UK) were used as substrates for trypsin and chymotrypsin inhibition determinations, respectively. Serial peptide dilutions (0.1–100 µM in phosphate buffered saline (PBS)) were incubated with 180 µL of substrate solution (50 µM in PBS) in a black 96-well plate under dark conditions for 10 min. Immediately prior to measurement, 10 µL of trypsin/chymotrypsin working solution (0.1 µM in PBS) was added to each well (final volume of 210 µL) in the plate. Subsequently, the fluorescence intensity was measured with the FLUO star OPTIMA plate reader (BMG Labtech, Ortenberg, Germany). The whole measurement process lasted for 30 min and was carried out at an emission wavelength of 460 nm and an excitation wavelength of 395 nm. The inhibition curves of trypsin and chymotrypsin were analyzed by non-linear regression using the Morrison equation in Prism 9 (Trypsin Km = 67.38 μM; Chymotrypsin Km = 17.15 μM; [S] = 42.86 μM; Et = 0.0020 μM).

S. aureus (ATCC 6538) = type: cell-based, Staphylococcus aureus; conditions: for MIC: MHB, 5 × 10^5 CFU/mL, overnight, absorbance 550 nm; for MBC: clear wells spotted onto MHA
Method: as §1

E. coli = assay: Salt sensitivity assay (MIC in the presence of salts); type: cell-based, Escherichia coli; conditions: for MIC in the presence of NH4Cl: MHB + 6 μM NH4Cl; for MIC in the presence of NH4Cl / MIC in the presence of KCl / MIC in the presence of NaCl / MIC in the presence of PBS: 18–20 h; for MIC in the presence of MgCl2: MHB + 1 mM MgCl2, 18–20 h; for MIC in the presence of CaCl2: MHB + 2.5 mM CaCl2, 18–20 h; for MIC in the presence of FeCl3: MHB + 4 mM FeCl3, 18–20 h; for MIC in the presence of KCl: MHB + 4.5 mM KCl; for MIC in the presence of ZnCl2: MHB + 8 mM ZnCl2, 18–20 h; for MIC in the presence of NaCl: MHB + 150 mM NaCl; for MIC in the presence of PBS: MHB, PBS (no added salt), 37 °C
Method: To determine the salt sensitivity of peptides, E. coli was used to detect the changes in MIC values of peptides under different salt conditions. The bacterial culture method used was similar to the MIC experimental method described earlier. Different concentrations of salts (150 mM NaCl, 4.5 mM KCl, 6 μM NH4Cl, 1 mM MgCl2, 1 mM MgCl2, 8 mM ZnCl2, 2.5 mM CaCl2, 4 mM FeCl3) were added to the MHB to examine the effects of each salt on the anti-E. coli activities of the peptides, as described in a previous study. Then, the bacterial dilution with salt was mixed well with peptides of different concentrations, similar to the MIC/MBC experiments, and cultured at 37 °C. After 18–20 h of incubation, the absorbance of each well was measured at 550 nm using the Synergy HT plate reader.

E. coli biofilm = assay: Antibiofilm assays (MBIC/MBEC, crystal violet); type: cell-based, Escherichia coli; conditions: for Concentration inhibiting biofilm formation (MBIC): E. coli, LB + 1% glucose, overnight 37 °C, crystal violet 595 nm, tested 1 to 128 µM; for Effect on existing biofilms (MBEC): E. coli pre-formed biofilm, 24 h, highest experimental concentration 128 µM
Method: To explore the ability of peptides to inhibit and eradicate the biofilm of E. coli, the minimum biofilm inhibition concentrations (MBICs) and minimum biofilm eradication concentrations (MBECs) were tested, respectively. Luria-Bertani broth (LB) medium containing 1% glucose was used to culture E. coli. The subcultured bacteria were diluted to 5 × 10^5 CFU/mL and 99 µL of this bacterial suspension was used to mix with 1 µL of peptide solution at different concentrations (double-dilution of 12,800 to 100 µM) in a 96-well plate. After overnight culture in an oscillating incubator at 37 °C and 220 rpm, the formed biofilm was washed twice with 100 µL PBS, then fixed in methanol. Next, biofilm formation was evaluated by 0.1% crystal violet staining. After dyeing for 15 min, the excess crystal violet was washed off and 30% glacial acetic acid was added to each well of a 96-well plate after drying. Then, the plate was shaken for 15 min, and the absorbance was measured at 595 nm using the Synergy HT plate reader. For the determination of MBEC, after the biofilm was formed, it was first washed twice with PBS, then the fresh medium and different concentrations of peptide (similar to MBIC experiments) were added and incubated at 37 °C at 220 rpm. The absorbance measurement was the same as previously described after 24 h of MBIC.

E. coli (ATCC 8739) = type: cell-based, Escherichia coli; conditions: for MIC: MHB, 5 × 10^5 CFU/mL, overnight; for MBC: clear wells spotted onto MHA
Method: as §1

horse erythrocytes = assay: Haemolysis activity assay; type: cell-based; conditions: 2% horse erythrocytes in PBS, 37 °C, 2 h
Method: Horse erythrocytes (TCS Biosciences Ltd., Buckingham, UK) were washed completely with PBS and resuspended to obtain a 2% horse erythrocyte suspension. Then, the peptide solutions at different concentrations were gently mixed with the same volume of horse red blood cell suspension and the mixture of peptide and horse erythrocytes was placed into a humidified incubator at 37 °C for 2 h. After incubation, the mixture of all experimental groups was centrifuged at 900× g for 10 min and the supernatants obtained were transferred to a blank 96-well plate. The absorbance of each well was measured at 550 nm using the Synergy HT plate reader.

[1] = peptide 128 µM (maximum test concentration), vs 0.1% Triton X-100

| Compound | MIC (MRSA (NCTC 12493)) [µM] | MBC (MRSA (NCTC 12493)) [µM] | Ki (chymotrypsin) [µM] | MIC (S. aureus (ATCC 6538)) [µM] | MBC (S. aureus (ATCC 6538)) [µM] | MIC in the presence of NH4Cl (E. coli) [µM] | MIC in the presence of MgCl2 (E. coli) [µM] | MIC in the presence of CaCl2 (E. coli) [µM] | MIC in the presence of FeCl3 (E. coli) [µM] | MIC in the presence of KCl (E. coli) [µM] | MIC in the presence of ZnCl2 (E. coli) [µM] | MIC in the presence of NaCl (E. coli) [µM] | MIC in the presence of PBS (E. coli) [µM] | Concentration inhibiting biofilm formation (MBIC) (E. coli biofilm) [µM] | MIC (E. coli (ATCC 8739)) [µM] | MBC (E. coli (ATCC 8739)) | Haemolytic activity (horse erythrocytes; [1]) | Chymotrypsin Ki (chymotrypsin) | Effect on existing biofilms (MBEC) (E. coli biofilm) [µM] | Haemolytic activity (horse erythrocytes; peptide 32 µM) [%] |
| --- | --- | --- | --- | --- | --- | --- | --- | --- | --- | --- | --- | --- | --- | --- | --- | --- | --- | --- | --- | --- |
| CC(C)C[C@H](NC(=O)[C@H](CCCCN)NC(=O)[C@H](C)NC(=O)[C@H](C)N)C(=O)N1CCC[C@H]1C(=O)N[C@@H](Cc1ccccc1)C(=O)N[C@@H](CCCNC(=N)N)C(=O)N[C@H]1CSSC[C@@H](C(=O)O)NC(=O)[C@H](Cc2ccccc2)NC(=O)[C@H](C)NC(=O)[C@H](C)NC(=O)[C@H](Cc2ccccc2)NC1=O [F9-KOV2] (HELM PEPTIDE1{A.A.K.L.P.F.R.C.F.A.A.F.C}$PEPTIDE1,PEPTIDE1,8:R3-13:R3$$$V2.0) | >128 | >128 | 2.19 | >128 | >128 | >128 | >128 | >128 | >128 | >128 | >128 | >128 | >128 | > 128 | >128 | >128 µM | less than 10% |  |  |  |
| CC(C)C[C@H](NC(=O)[C@H](CCCCN)NC(=O)[C@H](C)NC(=O)[C@H](C)NC(=O)CNC(=O)CNC(=O)[C@H](CCCNC(=N)N)NC(=O)[C@H](CCCNC(=N)N)NC(=O)[C@H](CCCNC(=N)N)NC(=O)[C@H](CCC(N)=O)NC(=O)[C@H](CCCNC(=N)N)NC(=O)[C@H](CCCNC(=N)N)NC(=O)[C@H](CCCCN)NC(=O)[C@H](CCCCN)NC(=O)[C@@H](N)CCCNC(=N)N)C(=O)N1CCC[C@H]1C(=O)N[C@@H](Cc1ccccc1)C(=O)N[C@@H](CCCNC(=N)N)C(=O)N[C@H]1CSSC[C@@H](C(=O)O)NC(=O)[C@H](Cc2ccccc2)NC(=O)[C@H](C)NC(=O)[C@H](C)NC(=O)[C@H](CCCCN)NC1=O [TAT-KOV2] (HELM PEPTIDE1{R.K.K.R.R.Q.R.R.R.G.G.A.A.K.L.P.F.R.C.K.A.A.F.C}$PEPTIDE1,PEPTIDE1,19:R3-24:R3$$$V2.0) | >128 | >128 |  | 32 | 64 | 4 | 8 | 16 | 4 | 4 | 4 | 4 | 4 | 8 | 4 | 4/4 µM | 10% | N.I. | > 128 |  |
| CC(C)C[C@H](NC(=O)[C@H](CCCCN)NC(=O)[C@H](C)NC(=O)[C@H](C)N)C(=O)N1CCC[C@H]1C(=O)N[C@@H](Cc1ccccc1)C(=O)N[C@@H](CCCNC(=N)N)C(=O)N[C@H]1CSSC[C@@H](C(=O)O)NC(=O)[C@H](Cc2ccccc2)NC(=O)[C@H](C)NC(=O)[C@H](C)NC(=O)[C@H](CCCCN)NC1=O [Kunitzin-OV2] (HELM PEPTIDE1{A.A.K.L.P.F.R.C.K.A.A.F.C}$PEPTIDE1,PEPTIDE1,8:R3-13:R3$$$V2.0) | >128 | >128 |  | >128 | >128 | >128 | >128 | >128 | >128 | >128 | >128 | >128 | 128 | > 128 | 128 | 128/128 µM | less than 10% | N.I. |  |  |
| CC(C)C[C@H](NC(=O)[C@H](CCCCN)NC(=O)[C@H](C)NC(=O)[C@H](C)NC(=O)CNC(=O)CNC(=O)[C@H](CCCNC(=N)N)NC(=O)[C@H](CCCNC(=N)N)NC(=O)[C@H](CCCNC(=N)N)NC(=O)[C@H](CCC(N)=O)NC(=O)[C@H](CCCNC(=N)N)NC(=O)[C@H](CCCNC(=N)N)NC(=O)[C@H](CCCCN)NC(=O)[C@H](CCCCN)NC(=O)[C@@H](N)CCCNC(=N)N)C(=O)N1CCC[C@H]1C(=O)N[C@@H](Cc1ccccc1)C(=O)N[C@@H](CCCNC(=N)N)C(=O)N[C@H]1CSSC[C@@H](C(=O)O)NC(=O)[C@H](Cc2ccccc2)NC(=O)[C@H](C)NC(=O)[C@H](C)NC(=O)[C@H](Cc2ccccc2)NC1=O [TAT-F9-KOV2] (HELM PEPTIDE1{R.K.K.R.R.Q.R.R.R.G.G.A.A.K.L.P.F.R.C.F.A.A.F.C}$PEPTIDE1,PEPTIDE1,19:R3-24:R3$$$V2.0) | >128 | >128 | 2.23 | 64 | 128 | 8 | 16 | 32 | 8 | 8 | 8 | 8 | 8 | 16 | 8 | 8/8 µM | about 25% |  | > 128 | 10 |
